Measured values published in patent US9955691B2, “Macrocyclic picolinamides as fungicides” (DOW AGROSCIENCES LLC, priority 2014, dated 2018).
Read-outs that look alike come from different tables or passages of the source.

Experiments:
Puccinia triticina = assay: Fungicidal activity: Wheat Brown Rust (PUCCRT); assay type: in vivo; conditions: for pest or weed control at 121.5 g/ha: Low Volume (121.5 g/H); for pest or weed control at 100 µg/mL: High Volume (100 ppm)
Outline: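 Wheat seedlings (Yuma, first leaf) sprayed to run-off with compound in acetone/water with Triton X-100, inoculated with Puccinia triticina before or after treatment. Held overnight in dark dew at 22° C, then greenhouse at 24° C; percent disease control from severity versus untreated plants.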

[1] = tested on: Mycosphaerella graminicola; Anamorph: Septoria tritici; assay: Fungicidal activity: Leaf Blotch of Wheat (SEPTTR); assay type: in vivo; conditions: Zymoseptoria tritici, wheat leaf blotch; for pest or weed control at 121.5 g/ha: Low Volume (121.5 g/H); for pest or weed control at 100 µg/mL: High Volume (100 ppm)
Outline: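 Compounds were dissolved in acetone, diluted with nine volumes of water containing 110 ppm Triton X-100, and sprayed to run-off on first-leaf Yuma wheat seedlings inoculated with Septoria tritici spores before or after treatment. Plants were held in a dew chamber, then a 20° C. greenhouse. Percent control was derived from disease severity relative to untreated plants.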

[2] = 24 h, 1 Day Protectant, read-out: PUCCRT 1 DP disease control
[3] = 72 h, 3 Day Curative, read-out: PUCCRT 3 DC disease control
[4] = 24 h, 1 Day Protectant, read-out: SEPTTR 1 DP disease control
[5] = 72 h, 3 Day Curative, read-out: SEPTTR 3 DC disease control

Structure (SMILES)	pest or weed control at 121.5 g/ha (Puccinia triticina; [2])	pest or weed control at 121.5 g/ha (Puccinia triticina; [3])	pest or weed control at 121.5 g/ha [1, 4]	pest or weed control at 121.5 g/ha [1, 5]	pest or weed control at 100 µg/mL (Puccinia triticina; [2])	pest or weed control at 100 µg/mL (Puccinia triticina; [3])	pest or weed control at 100 µg/mL [1, 4]	pest or weed control at 100 µg/mL [1, 5]
COc1ccnc(C(=O)N[C@H]2COC[C@H](Cc3ccccc3)[C@@H](C3CCCC3)[C@H](C)OC2=O)c1OC(C)=O [compound 37]	> 70%	> 70%	> 70%	> 70%				
COc1ccnc(C(=O)N[C@H]2COC[C@H](Cc3ccccc3)[C@@H](Cc3ccc(OC(F)(F)F)cc3)[C@H](C)OC2=O)c1OCOC(=O)C(C)C [compound 48]	> 70%	< 70%	> 70%	> 70%				
COc1ccnc(C(=O)N[C@H]2COC[C@H](Cc3ccccc3)[C@@H](CC(C)C)[C@H](C)OC2=O)c1OC(C)=O [compound 18]	> 70%	< 70%	> 70%	> 70%				
COc1ccnc(C(=O)N[C@H]2COC[C@H](CCC(C)C)[C@@H](CCc3ccccc3)[C@H](C)OC2=O)c1OCOC(=O)C(C)C [compound 35]	> 70%	> 70%	> 70%	> 70%				
COc1ccnc(C(=O)N[C@H]2COC[C@H](Cc3ccccc3)[C@@H](CC(C)C)[C@H](C)OC2=O)c1OCOC(=O)C(C)C [compound 20]	> 70%	> 70%	> 70%	> 70%				
COc1ccnc(C(=O)N[C@@H]2COC[C@@H](Cc3ccccc3)[C@H](COCC(C)C)[C@@H](C)OC2=O)c1O [compound 122]					< 70%	< 70%	< 70%	< 70%
COc1ccnc(C(=O)N[C@H]2COC[C@H](Cc3ccccc3)[C@@H](COCC(C)C)[C@H](C)OC2=O)c1O [compound 121]					< 70%	< 70%	< 70%	> 70%
COc1ccnc(C(=O)N[C@H]2COC[C@H](Cc3ccccc3)[C@@H](CCc3ccccc3)[C@H](C)OC2=O)c1O [compound 128]					> 70%	< 70%	> 70%	> 70%
COc1ccnc(C(=O)N[C@H]2COC[C@H](Cc3ccc(C(F)(F)F)cc3)[C@@H](Cc3ccccc3)[C@H](C)OC2=O)c1OCOC(=O)C(C)C [compound 57]	> 70%	< 70%	> 70%	> 70%				
COc1ccnc(C(=O)N[C@H]2COC[C@H](Cc3ccccc3)[C@@H](C3CCCC3)[C@H](C)OC2=O)c1OCOC(=O)C(C)C [compound 39]	> 70%	> 70%	> 70%	> 70%				
COc1ccnc(C(=O)N[C@H]2COC[C@H](CCC(C)C)[C@@H](Cc3ccccc3)[C@H](C)OC2=O)c1O [compound 133]					> 70%	> 70%	> 70%	> 70%
CCOCC(=O)OCOc1c(OC)ccnc1C(=O)N[C@H]1COC[C@H](Cc2ccc(Cl)cc2)[C@@H](CC(C)C)[C@H](C)OC1=O [compound 74]	> 70%	< 70%	> 70%	> 70%				
COc1ccnc(C(=O)N[C@H]2COC[C@H](Cc3ccc(Cl)cc3)[C@@H](CC(C)C)[C@H](C)OC2=O)c1OCOC(C)=O [compound 73]	> 70%	< 70%	> 70%	> 70%				
COc1ccnc(C(=O)N[C@H]2COC[C@H](Cc3ccccc3)[C@@H](COCC(C)C)[C@H](C)OC2=O)c1OCOC(C)=O [compound 12]	> 70%	< 70%	> 70%	> 70%	> 70%	> 70%	> 70%	> 70%
CCC[C@H]1COC[C@H](NC(=O)c2nccc(OC)c2OCOC(C)=O)C(=O)O[C@@H](C)[C@@H]1CC(C)C [compound 63]	> 70%	< 70%	< 70%	< 70%				
COc1ccnc(C(=O)N[C@H]2COC[C@H](Cc3ccccc3)[C@@H](Cc3ccccc3)[C@@H](C)OC2=O)c1OCOC(C)=O [compound 2]					< 70%	< 70%	< 70%	< 70%
CCC[C@H]1COC[C@H](NC(=O)c2nccc(OC)c2OC(C)=O)C(=O)O[C@@H](C)[C@@H]1Cc1ccccc1 [compound 22]	> 70%	> 70%	> 70%	> 70%				
COc1ccnc(C(=O)N[C@H]2COC[C@H](Cc3ccc(Cl)cc3)[C@@H](CC(C)C)[C@H](C)OC2=O)c1OC(C)=O [compound 75]	> 70%	< 70%	> 70%	> 70%				
COc1ccnc(C(=O)N[C@H]2COC[C@H](Cc3ccc(C(F)(F)F)cc3)[C@@H](Cc3ccc(F)cc3)[C@H](C)OC2=O)c1OC(C)=O [compound 79]	> 70%	< 70%	> 70%	< 70%				
CCC[C@H]1COC[C@H](NC(=O)c2nccc(OC)c2OC(C)=O)C(=O)O[C@@H](C)[C@@H]1CC(C)C [compound 64]	> 70%	> 70%	> 70%	> 70%				
COc1ccnc(C(=O)N[C@H]2COC[C@H](Cc3ccccc3)[C@@H](CCC(C)C)[C@H](C)OC2=O)c1OC(C)=O [compound 84]	> 70%	> 70%	> 70%	> 70%				
CCC[C@H]1COC[C@H](NC(=O)c2nccc(OC)c2OCOC(=O)COCC)C(=O)O[C@@H](C)[C@@H]1Cc1ccccc1 [compound 25]	> 70%	> 70%	> 70%	> 70%				
COc1ccnc(C(=O)N[C@H]2COC[C@H](CCC(C)C)[C@@H](CCC(C)C)[C@H](C)OC2=O)c1OCOC(C)=O [compound 8]					> 70%	> 70%	> 70%	> 70%
COc1ccnc(C(=O)N[C@H]2COC[C@H](Cc3ccccc3)[C@@H](CCc3ccccc3)[C@H](C)OC2=O)c1OCOC(C)=O [compound 30]	> 70%	> 70%	> 70%	> 70%				
COc1ccnc(C(=O)N[C@H]2COC[C@@H]3CCCC[C@H]3[C@@H](C)OC2=O)c1O [compound 114]					> 70%	> 70%	> 70%	< 70%
COc1ccnc(C(=O)N[C@H]2COC[C@H](Cc3ccc(C(F)(F)F)cc3)[C@@H](Cc3ccc(F)cc3)[C@H](C)OC2=O)c1OCOC(=O)C(C)C [compound 80]	> 70%	< 70%	< 70%	< 70%				
COc1ccnc(C(=O)N[C@H]2COC[C@H](Cc3ccccc3)[C@@H](Cc3ccc(F)cc3)[C@H](C)OC2=O)c1OC(C)=O [compound 60]	< 70%	< 70%	> 70%	< 70%				
CCOCC(=O)OCOc1c(OC)ccnc1C(=O)N[C@H]1COC[C@H](Cc2ccccc2)[C@@H](C2CCCC2)[C@H](C)OC1=O [compound 40]	> 70%	> 70%	> 70%	> 70%				
CCOCC(=O)OCOc1c(OC)ccnc1C(=O)N[C@H]1COC[C@H](Cc2ccccc2)[C@@H](CCc2ccccc2)[C@H](C)OC1=O [compound 32]	> 70%	> 70%	> 70%	> 70%				
COc1ccnc(C(=O)N[C@H]2COC[C@H](Cc3ccc(C(F)(F)F)cc3)[C@@H](Cc3ccc(F)cc3)[C@H](C)OC2=O)c1O [compound 147]					> 70%	< 70%	> 70%	< 70%
